Organism: Rattus norvegicus
Experiment: Compound was tested for intrinsic growth hormone(GH) secretory potency in the rat pituitary cell assay
Format: functional
Settings: Pituitary gland cell

`CC(C)(N)CC(=O)N[C@H](COCc1ccccc1)C(=O)N1CCC2(CCc3ccccc32)CC1` was tested, and the EC50 was > 1000 nM.

`CC(C)(N)C(=O)N[C@H](Cc1ccccc1)C(=O)N1CCC2(CCc3ccccc32)CC1` was tested, and the EC50 was 250 nM.

For `CC(C)(N)C(=O)N[C@H](Cc1cccc2ccccc12)C(=O)N1CCC2(CCc3ccccc32)CC1`, the EC50 was 1100 nM.

`C[C@@H](O)CNC(C)(C)CC(=O)N[C@H](COCc1ccccc1)C(=O)N1CCC2(CCc3ccccc32)CC1` gave an EC50 of 240 nM.

In the case of `CC(C)(N)C(=O)N[C@H](Cc1ccc2ccccc2c1)C(=O)N1CCC2(CCc3ccccc32)CC1`, the EC50 is reported as 900 nM.

`C[C@@H](O)CNC(C)(C)CC(=O)N[C@H](CCc1ccccc1)C(=O)N1CCC2(CCc3ccccc32)CC1` showed an EC50 of 200 nM.

With `CC(C)(N)CC(=O)N[C@H](CCc1ccccc1)C(=O)N1CCC2(CCc3ccccc32)CC1` the EC50 was > 1000 nM.

`CC(C)(N)C(=O)N[C@H](CSCc1ccccc1)C(=O)N1CCC2(CCc3ccccc32)CC1` was tested, and the EC50 was 65 nM.

`CC(C)(CC(=O)N[C@H](CCc1ccccc1)C(=O)N1CCC2(CCc3ccccc32)CC1)NC[C@H](O)CO` gave an EC50 of 170 nM.

For `CC(C)(N)C(=O)N[C@H](Cc1csc2ccccc12)C(=O)N1CCC2(CCc3ccccc32)CC1`, the EC50 was 490 nM.

Source: ChEMBL document CHEMBL1149917, “Peptidomimetic growth hormone secretagogues: synthesis and biological activities of analogs varied at the indole nucleus of the prototypical spiropiperidine L-162,752” (Bioorg Med Chem Lett, 1996)
